The Km is the concentration of substrate that gives half-maximal velocity. Broadly, the kcat is the maximal rate divided by the concentration of active sites.

These results are taken from article PMC10516900 (Communications Biology, 2023).

For data set [1], the system named is USP7. To be noted: cited from earlier work; for potency and specificity for USP7: recently reported USP7 inhibitors.
In data set [2] the test system is USP47. The conditions noted are these: cited from earlier work.
Data set [3] relates to HCT116 (p53+/+) cells. The experiment in a line: Q-PCR relative expression levels, HCT116 (p53+/+). Format: cell-based, human.
Data set [4] relates to Ub-AMC. As to the kind of experiment: Ub-AMC hydrolysis, Michaelis-Menten enzyme kinetics and relative activity of USP constructs. Type of data set: biochemical. On the procedure:
Enzymes and substrates were diluted in the reaction buffer (20 mM HEPES, pH 7.4, 150 mM NaCl, and 5 mM DTT) to a concentration of 5 μM for the substrate and 0.5 μM for the enzymes. At the indicated time points following the reaction initiation, 10 μL reaction aliquots were taken and the reaction was stopped by adding SDS sampling buffer and analyzed using SDS-PAGE. Then, the 4–15% gradient gel was stained with Coomassie Brilliant Blue R-250. USP enzymatic activity and inhibition assays were measured at room temperature using the cleavage-sensitive fluorogenic substrate Ub-AMC (Boston Biochem, U-550). The deubiquitination assay was performed following the protocol by Ernst et al.[30]. Briefly, enzyme activity assays were performed in assay buffer in 20 mM HEPES (pH 7.4), 100 mM NaCl, and 5 mM DTT) containing cUSP47CD (in 50 nM), hUSP47CD-UBL12 (in 100 nM) or hUSP7CD (in 100 nM) constructs and serial dilutions of Ub-AMC (final 35 μM). The AMC fluorescence emission was monitored at 460 nm (excitation at 380 nm) for 30–60 min using a SpectraMax M3 plate reader (Molecular Devices). […] The data were fitted using GraphPad Prism 7 (GraphPad Inc.). Fluorescence intensity was recorded every 45 s for 90 min. Data are presented as the mean ± SD (n = 3).

In the case of `C=C1C(=O)O[C@H]2[C@H]1CC/C(C)=C/CC[C@@]1(C)O[C@@H]21` [Parthenolide], the “inhibition of USP7” value in data set [1] was “can also inhibit both DUBs”. For the same molecule, in data set [2], the “inhibition of USP47” value is given as “can also inhibit both DUBs”.

“USP47i-1: USP47 siRNA #1, 5′-AAGCTACTCCTACTCATCTATTT-3′ (chemistry not given here)”: in data set [3], the “relative expression level of USP7 (Q-PCR)” value stood at 0.6273 and the “relative expression level of USP47 (Q-PCR)” value came to 0.3385.

Regarding “USP7i-2: USP7 siRNA #2, 5′-ACCCUUGGACAAUAUUCCU-3′ (chemistry not given here)”, in data set [3], the “relative expression level of USP7 (Q-PCR)” value worked out at 0.5662 and the “relative expression level of USP47 (Q-PCR)” value is on record as 0.9671.

For the molecule `C[C@H](CC(=O)N1CCC(O)(Cn2cnc3cc(NC(=O)CCN4CCN(C)CC4)ccc3c2=O)CC1)c1ccccc1` [XL188], the “potency and specificity for USP7” value in data set [1] was “high potency and specificity only for USP7”.

Consider “USP47i-2: USP47 siRNA #2, 5′-TGAAAAGGGATGTGCAAAA-3′ (chemistry not given here)”, for which, in data set [3], the “relative expression level of USP7 (Q-PCR)” value is on record as 0.9487 and the “relative expression level of USP47 (Q-PCR)” value was found to be 0.486.

As for `CCc1c(-c2ccc(C(=O)NC)nc2)cnc(N)c1-c1ccc(O)cc1` [GNE6776], the “potency and specificity for USP7” value in data set [1] is “high potency and specificity only for USP7”.

B1: hUSP47CD-UBL12: human USP47 catalytic domain with the first two UBL domains, residues 1-794 (protein, UniProt Q96K76 1-794, looked up, fragment)
chain: MVPGEENQLVPKEDVFWRCRQNIFDEMKKKFLQIENAAEEPRVLCIIQDTTNSKTVNERITLNLPASTPVRKLFEDVANKVGYINGTFDLVWGNGINTADMAPLDHTSDKSLLDANFEPGKKNFLHLTDKDGEQPQILLEDSSAGEDSVHDRFIGPLPREGSGGSTSDYVSQSYSYSSILNKSETGYVGLVNQAMTCYLNSLLQTLFMTPEFRNALYKWEFEESEEDPVTSIPYQLQRLFVLLQTSKKRAIETTDVTRSFGWDSSEAWQQHDVQELCRVMFDALEQKWKQTEQADLINELYQGKLKDYVRCLECGYEGWRIDTYLDIPLVIRPYGSSQAFASVEEALHAFIQPEILDGPNQYFCERCKKKCDARKGLRFLHFPYLLTLQLKRFDFDYTTMHRIKLNDRMTFPEELDMSTFIDVEDEKSPQTESCTDSGAENEGSCHSDQMSNDFSNDDGVDEGICLETNSGTEKISKSGLEKNSLIYELFSVMVHSGSAAGGHYYACIKSFSDEQWYSFNDQHVSRITQEDIKKTHGGSSGSRGYYSSAFASSTNAYMLIYRLKDPARNAKFLEVDEYPEHIKNLVQKERELEEQEKRQREIERNTCKIKLFCLHPTKQVMMENKLEVHKDKTLKEAVEMAYKMMDLEEVIPLDCCRLVKYDEFHDYLERSYEGEEDTPMGLLLGGVKSTYMFDLLLETRKPDQVFQSYKPGEVMVKVHVVDLKAESVAAPITVRAYLNQTVTEFKQLISKAIHLPAETMRIVLERCYNDLRLLSVSSKTLKAEGFFRSNKVFV
modifications: catalytic domain with UBL1-2
B1: in data set [4], the Km is 3 ± 0.6 µM and the catalytic constant (kcat) is 0.03 ± 0.002 s⁻¹.
